Structures can show the parent of a compound that is named as a salt. Where two headings read alike, the source gives them in different places.
Tests used:
[1] = target: T1, SSAO (bovine plasma amine oxidase, PAO) (Bos taurus, UniProt Q29437); assay: In vitro inhibition of SSAO activity, coupled colorimetric method; type: biochemical
T1 construct: Bovine plasma amine oxidase (PAO) was purchased from Worthington Biochemical; purchased Worthington Biochemical (Lakewood, N.J.)
T1 sequence (Q29437 17-762): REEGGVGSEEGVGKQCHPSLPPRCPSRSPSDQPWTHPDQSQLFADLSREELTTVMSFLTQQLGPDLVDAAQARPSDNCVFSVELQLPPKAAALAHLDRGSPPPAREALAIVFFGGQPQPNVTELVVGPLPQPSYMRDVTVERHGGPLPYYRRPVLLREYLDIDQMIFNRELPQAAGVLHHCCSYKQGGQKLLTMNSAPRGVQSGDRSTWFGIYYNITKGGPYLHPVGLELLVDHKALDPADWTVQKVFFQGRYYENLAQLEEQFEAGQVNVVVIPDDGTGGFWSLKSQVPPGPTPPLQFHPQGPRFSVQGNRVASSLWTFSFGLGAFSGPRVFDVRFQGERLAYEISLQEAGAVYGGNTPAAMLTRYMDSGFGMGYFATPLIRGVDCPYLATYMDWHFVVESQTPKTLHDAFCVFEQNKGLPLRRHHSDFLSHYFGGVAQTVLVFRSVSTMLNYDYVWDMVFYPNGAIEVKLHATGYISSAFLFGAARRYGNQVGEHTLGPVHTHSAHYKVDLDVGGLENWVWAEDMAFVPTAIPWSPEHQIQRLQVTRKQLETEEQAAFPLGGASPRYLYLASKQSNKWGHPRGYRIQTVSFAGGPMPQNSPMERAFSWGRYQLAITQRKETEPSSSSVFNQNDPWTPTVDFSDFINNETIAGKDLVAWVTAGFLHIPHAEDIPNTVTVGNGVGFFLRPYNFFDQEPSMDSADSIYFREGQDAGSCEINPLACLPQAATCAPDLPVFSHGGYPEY
Method: SSAO activity was measured using the coupled colorimetric method essentially as described for monoamine oxidase and related enzymes (Holt A. et al. (1997) Anal. Biochem. 244:384). Bovine plasma amine oxidase (PAO) was purchased from Worthington Biochemical (Lakewood, N.J.) and used as a source of SSAO for activity measurements. The SSAO assay was performed in 96 well microtitre plates as follows. A pre-determined amount of inhibitor diluted in 0.2 M potassium phosphate buffer, pH 7.6, was added to each well, if required. The amount of inhibitor varied in each assay but was generally at a final concentration of between 10 nM and 10 μM. Controls lacked inhibitor. In order to study the effects of potential inhibitors 50 μl of inhibitor solution were preincubated for 30 min at 37° C. with 0.4 mU of PAO in an a total volume of 130 μl of 0.2 M potassium phosphate buffer pH 7.6. Assays were then started by addition of 20 μl 10 mM benzylamine substrate and incubated for 20 min at 37° C. The following reagents were then added to a final reaction volume of 200 μl, 50 μl of freshly made chromogenic solution containing […] vanillic acid (Sigma # V-2250), […] 4-aminoantipyrine (Sigma # A-4328) and 12 U/ml horseradish peroxidase (Sigma # P-8250) in order to cause a change of 0.5 OD A490 per hour. This was within the linear response range of the assay. The plates were incubated for 1 hr at 37° C. and the increase in absorbance, reflecting SSAO activity, was measured at 490 nm using a microplate spectrophotometer (Power Wave 40, Bio-Tek Inst.). Inhibition was presented as percent inhibition compared to control after correcting for background absorbance and IC50 values calculated using GraphPad Prism software.

recombinant human MAO-A = target: T2, recombinant human MAO-A (Homo sapiens, UniProt P21397); assay: Inhibition of MAO-A activity, colorimetric; type: biochemical; conditions: for Specificity for SSAO vs. MAO-A: ratio IC50 MAO-A to IC50 SSAO
T2 construct: purchased BD Biosciences (MA, USA)
T2 sequence (P21397 1-527): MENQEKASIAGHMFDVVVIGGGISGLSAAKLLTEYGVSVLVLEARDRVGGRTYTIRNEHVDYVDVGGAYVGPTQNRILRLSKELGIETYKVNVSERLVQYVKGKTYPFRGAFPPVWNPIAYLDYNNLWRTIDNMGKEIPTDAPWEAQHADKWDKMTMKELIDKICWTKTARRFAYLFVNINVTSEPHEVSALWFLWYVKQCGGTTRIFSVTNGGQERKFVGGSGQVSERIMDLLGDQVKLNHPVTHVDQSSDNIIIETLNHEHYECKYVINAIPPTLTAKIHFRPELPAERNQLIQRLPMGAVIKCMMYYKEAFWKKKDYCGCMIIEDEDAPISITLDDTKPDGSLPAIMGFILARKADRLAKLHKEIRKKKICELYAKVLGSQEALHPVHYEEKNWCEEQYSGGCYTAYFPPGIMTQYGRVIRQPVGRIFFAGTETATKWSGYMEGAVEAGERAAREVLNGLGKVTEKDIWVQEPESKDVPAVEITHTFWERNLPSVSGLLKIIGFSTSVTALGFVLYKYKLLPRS
Method: (§1) The specificity of the different SSAO inhibitors was tested by determining their ability to inhibit MAO-A and MAO-B activities in vitro. Recombinant human MAO-A and human MAO-B enzymes were obtained from BD Biosciences (MA, USA). […] A pre-determined amount of inhibitor diluted in 0.2 M potassium phosphate buffer, pH 7.6, was added to each well, if required. […] Controls lacked inhibitor. The following agents were then added to a final reaction volume of 200 μl in 0.2 M potassium phosphate buffer, pH 7.6: 0.04 mg/ml of MAO-A or 0.07 mg/ml MAO-B enzyme, 15 μl of 10 mM tyramine substrate (for MAO-A), or 15 μl 100 mM benzylamine substrate (for MAO-B), and 50 μl of freshly made chromogenic solution (as above). The plates were incubated for 60 min at 37° C. The increase in absorbance, reflecting MAO activity, was measured at 490 nm using microplate spectrophotometer (Power Wave 40, Bio-Tek Inst.). Inhibition was presented as percent inhibition compared to control after correcting for background absorbance and IC50 values calculated using GraphPad Prism software.

recombinant human MAO-B = target: T3, recombinant human MAO-B (Homo sapiens, UniProt P27338); assay: Inhibition of MAO-B activity, colorimetric; type: biochemical; conditions: for Specificity for SSAO vs. MAO-B: ratio IC50 MAO-B to IC50 SSAO
T3 construct: purchased BD Biosciences (MA, USA)
T3 sequence (P27338 1-520): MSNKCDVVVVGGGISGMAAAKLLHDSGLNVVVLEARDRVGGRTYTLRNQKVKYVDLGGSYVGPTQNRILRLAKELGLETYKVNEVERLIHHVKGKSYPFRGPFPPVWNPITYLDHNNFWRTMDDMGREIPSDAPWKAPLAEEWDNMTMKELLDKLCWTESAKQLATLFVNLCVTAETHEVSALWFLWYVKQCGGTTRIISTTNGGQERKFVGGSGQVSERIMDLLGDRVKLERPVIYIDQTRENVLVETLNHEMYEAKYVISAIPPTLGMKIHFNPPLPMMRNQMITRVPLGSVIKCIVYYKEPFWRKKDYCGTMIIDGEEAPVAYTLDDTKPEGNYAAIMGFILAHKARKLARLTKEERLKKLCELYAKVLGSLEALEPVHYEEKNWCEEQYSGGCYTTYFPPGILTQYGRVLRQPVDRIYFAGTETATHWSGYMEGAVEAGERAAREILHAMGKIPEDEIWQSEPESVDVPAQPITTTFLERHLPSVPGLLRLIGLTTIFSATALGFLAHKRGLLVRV
Method: as §1

[2] = test system: carrageenan-induced paw edema in Sprague Dawley rats; assay: Carrageenan-induced rat paw edema; type: in vivo; conditions: 3 mg/kg oral 1 hour prior to carrageenan
Method: Female Sprague Dawley rats were used and compounds of the invention were injected i.p. at 100 mg/kg 15 minutes prior to carrageenan exposure. The control group was injected with an equal volume of vehicle (PBS). Edema in the paws was induced as previously described by injecting 50 μl of a 0.5% solution of carrageenan (Type IV Lambda, Sigma) in saline with a 27-G needle s.c. in the right foot pat. (See Whiteley P. E. and Dalrymple S. A. (1998) Models of inflammation: carrageenan-induced paw edema in the rat, in Current Protocols in Pharmacology. Enna S J, Williams M, Ferkany J W, Kenaki T, Porsolt R E and Sullivan J P, eds., pp 5.4.1-5.4.3, John Wiley & Sons, New York) The size of the tested foot of each animal was measured volumetrically, before induction of edema, and at 60, 120, and 180 min after carrageenan induction.
Briefly, SSAO inhibitors (30 mg/kg), indomethacin (3 mg/kg) and PBS were administered orally to rats 1 hour after carrageenan injections.
To investigate further the role of SSAO inhibition in the inflammatory response, studies were carried out to assess the effect of SSAO inhibition on prostaglandin E2 (PGE2) levels. Animals were divided into four therapeutic groups of eight rats each. […] The fourth group received 3 mg/kg of dexamethasone, i.p. 1 hour before paw inflammation. Three hours after carrageenan injection, rats were asphyxiated with CO2 and their hind paws removed. The paws were lacerated with a scalpel, suspended off the bottom of a polypropylene 1.5 ml tube with a micropipette tip and centrifuged to express the inflammatory fluid. The volume collected from each paw was determined and the fluid was analyzed by ELISA for PGE2 production using a commercial kit (R&D Systems, Minneapolis, Minn.) according to the manufacturer's instructions. […] Data were analyzed with GraphPad Prism software (San Diego, Calif.) by Dunnett's test following analysis of variance.

SMILES	melting point	IC50 [1]	IC50 (recombinant human MAO-A)	Specificity for SSAO vs. MAO-A (recombinant human MAO-A)	IC50 (recombinant human MAO-B)	Specificity for SSAO vs. MAO-B (recombinant human MAO-B)	IC50 ([1]; 30 min preincubation, benzylamine substrate, read-out: SSAO Inhibitory Activity IC50)	IC50 (recombinant human MAO-A; tyramine substrate, no pre-incubation, read-out: MAO-A Inhibitory Activity IC50)	PGE2 levels in paw exudate [2]
C=C(CON)c1ccccc1 (as salt: hydrochloride) [Example 1, O-(2-phenyl-allyl)-hydroxylamine Hydrochloride]	101 to 102 °C	–	–	–	–	–	–	–	–
C=C(CON)c1ccccc1 [Example 1, O-(2-phenyl-allyl)-hydroxylamine Hydrochloride]	–	0.029 µM	900 µM	31,000	125 µM	4,300	–	–	–
C=C(CNN)c1ccc(Cl)cc1.Cl [Example 3, N-[2-(4′-chlorophenyl)-allyl]-hydrazine Hydrochloride]	–	–	–	20	24.5 µM	490	0.05 µM	1 µM	–
C=C(CN(C)N)c1ccc(Cl)cc1.Cl [Example 4, N-[2-(4′-chlor-phenyl)-allyl]-N-methyl-hydrazine Hydrochloride]	–	0.65 µM	260 µM	400	175 µM	269	–	–	–
C=C(CN(N)CC)c1ccc(Cl)cc1.Cl [Example 5, N-[2-(4′-Chlorophenyl)-allyl]-N-ethyl-hydrazine Hydrochloride]	150 to 151 °C	0.95 µM	690 µM	726	155 µM	163	–	–	–
C=C(CN(C)NC)c1ccc(Cl)cc1.Cl [Example 6, N-[2-(4′-Chlorophenyl)-allyl]-N,N′-dimethylhydrazine Hydrochloride]	108 to 110 °C	4.7 µM	300 µM	64	2.8 µM	0.60	–	–	–
C=C(CNNC)c1ccc(F)cc1.Cl [Example 7, N-[2-(4′-fluorophenyl)-allyl]-N′-methylhydrazine Hydrochloride]	128 to 129 °C	2.61 µM	620 µM	230	210 µM	80	–	–	–
C=C(C)CNN.Cl [Example 9, (2-methyl-allyl)hydrazine Hydrochloride]	–	0.055 µM	350 µM	6,300	20 µM	360	–	–	–
NOCC(O)c1ccccc1 (centres unmarked) [Example 11, 2-Aminooxyl-1-phenyl-ethanol Hydrochloride]	–	0.05 µM	250 µM	5000	450 µM	9000	–	–	–
COc1ccc(C(O)CON)cc1OC (centres unmarked) [Example 12, 2-Aminooxy-1-(3′,4′-dimethoxyphenyl)-ethanol Hydrochloride]	–	0.09 µM	3.6 µM	400,000	8200 µM	90,000	–	–	–
COc1ccc2c(c1)c(CC(=O)O)c(C)n2C(=O)c1ccc(Cl)cc1 [indomethacin, reference compound]	–	–	–	–	–	–	–	–	greater impact

— patent US20050096360A1, “Inhibitors of semicarbazide-sensitive amine oxidase (SSAO) and VAP-1 mediated adhesion useful for treatment of diseases” (priority 2003, published 2005)
